The NIST ThermoML archive (doi:10.1021/je0301085)
Numbers after ± are expanded uncertainties.

Key:
[1] = refractive index (Na D-line) (dimensionless); conditions: 101.33 kPa, Liquid, Standard Abbe refractometry
[2] = Liquid; for mass density: 101.33 kPa

Q: With `CC(Cl)(Cl)Cl` [1,1,1-trichloroethane] as the compound, how does the refractive index ([1]; 298.15 K) read?
A: 1.436 ± 0.0007

Q: And the mass density ([2]; 298.15 K)?
A: 1330 ± 5 kg/m3

Q: What about the “vapor or sublimation pressure” value ([2]; 345.25 K) of the same compound?
A: 94.6 ± 0.3 kPa

Q: And the “vapor or sublimation pressure” value ([2]; 345.35 K)?
A: 94.6 ± 0.2 kPa

Q: What about the “vapor or sublimation pressure” value ([2]; 345.65 K) of the same compound?
A: 95.8 ± 0.3 kPa

Q: For `ClC(Cl)C(Cl)Cl` [1,1,2,2-tetrachloroethane], which refractive index ([1]; 298.15 K) is on record?
A: 1.494 ± 0.0007

Q: What about the mass density ([2]; 298.15 K) of the same compound?
A: 1587 ± 5 kg/m3

Q: And the “vapor or sublimation pressure” value ([2]; 416.95 K)?
A: 94.6 ± 0.2 kPa

Q: What about the “vapor or sublimation pressure” value ([2]; 417.35 K) of the same compound?
A: 95.8 ± 0.2 kPa

Q: For `ClCCCl` [1,2-dichloroethane], which refractive index ([1]; 298.15 K) is on record?
A: 1.4421 ± 0.0007

Q: And the mass density ([2]; 298.15 K)?
A: 1247 ± 5 kg/m3

Q: And the “vapor or sublimation pressure” value ([2]; 354.95 K)?
A: 94.6 ± 0.3 kPa

Q: What about the “vapor or sublimation pressure” value ([2]; 355.05 K) of the same compound?
A: 94.6 ± 0.3 kPa

Q: And the “vapor or sublimation pressure” value ([2]; 355.25 K)?
A: 95.8 ± 0.3 kPa

Q: With `Clc1ccccc1` [chlorobenzene] as the compound, how does the refractive index ([1]; 293.15 K) read?
A: 1.5248 ± 0.0007

Q: What about the mass density ([2]; 293.15 K) of the same compound?
A: 1106 ± 5 kg/m3

Q: What about the “vapor or sublimation pressure” value ([2]; 402.55 K) of the same compound?
A: 94.6 ± 0.3 kPa

Q: For `CCCCCCC` [heptane], which refractive index ([1]; 298.15 K) is on record?
A: 1.3851 ± 0.0007

Q: What about the mass density ([2]; 298.15 K) of the same compound?
A: 679.5 ± 5 kg/m3

Q: And the “vapor or sublimation pressure” value ([2]; 369.75 K)?
A: 95.8 ± 0.3 kPa

Q: What about the “vapor or sublimation pressure” value ([2]; 369.78 K) of the same compound?
A: 95.8 ± 0.3 kPa

Q: Which refractive index ([1]; 298.15 K) does the source give for `O=[N+]([O-])c1ccccc1` [nitrobenzene] here?
A: 1.55 ± 0.001

Q: And the mass density ([2]; 298.15 K)?
A: 1198 ± 5 kg/m3

Q: And the “vapor or sublimation pressure” value ([2]; 481.15 K)?
A: 94.6 ± 0.3 kPa

Q: Which results are given for `ClC(Cl)=C(Cl)Cl` [tetrachloroethene]?
A: refractive index ([1]; 298.15 K): 1.505 ± 0.0007; mass density ([2]; 298.15 K): 1615 ± 5 kg/m3; vapor or sublimation pressure ([2]; 391.25 K): 94.6 ± 0.2 kPa; vapor or sublimation pressure ([2]; 391.65 K): 95.8 ± 0.2 kPa

Q: What does the source list for `ClC=C(Cl)Cl` [trichloroethene]?
A: refractive index ([1]; 298.15 K): 1.4782 ± 0.0007; mass density ([2]; 298.15 K): 1464 ± 5 kg/m3; vapor or sublimation pressure ([2]; 358.25 K): 94.6 ± 0.3 kPa; vapor or sublimation pressure ([2]; 358.55 K): 95.8 ± 0.3 kPa
